Results from patent US20070021434A1, “NON-NUCLEOSIDE ANTI-HEPACIVIRUS AGENTS AND USES THEREOF” (Migenix Inc., priority 2005, published 2007).

Target: HCV RdRp (NS5B) (UniProt P26663)
Type: biochemical, hepatitis C virus

Chain of HCV RdRp (NS5B) (P26663 whole entry, looked up): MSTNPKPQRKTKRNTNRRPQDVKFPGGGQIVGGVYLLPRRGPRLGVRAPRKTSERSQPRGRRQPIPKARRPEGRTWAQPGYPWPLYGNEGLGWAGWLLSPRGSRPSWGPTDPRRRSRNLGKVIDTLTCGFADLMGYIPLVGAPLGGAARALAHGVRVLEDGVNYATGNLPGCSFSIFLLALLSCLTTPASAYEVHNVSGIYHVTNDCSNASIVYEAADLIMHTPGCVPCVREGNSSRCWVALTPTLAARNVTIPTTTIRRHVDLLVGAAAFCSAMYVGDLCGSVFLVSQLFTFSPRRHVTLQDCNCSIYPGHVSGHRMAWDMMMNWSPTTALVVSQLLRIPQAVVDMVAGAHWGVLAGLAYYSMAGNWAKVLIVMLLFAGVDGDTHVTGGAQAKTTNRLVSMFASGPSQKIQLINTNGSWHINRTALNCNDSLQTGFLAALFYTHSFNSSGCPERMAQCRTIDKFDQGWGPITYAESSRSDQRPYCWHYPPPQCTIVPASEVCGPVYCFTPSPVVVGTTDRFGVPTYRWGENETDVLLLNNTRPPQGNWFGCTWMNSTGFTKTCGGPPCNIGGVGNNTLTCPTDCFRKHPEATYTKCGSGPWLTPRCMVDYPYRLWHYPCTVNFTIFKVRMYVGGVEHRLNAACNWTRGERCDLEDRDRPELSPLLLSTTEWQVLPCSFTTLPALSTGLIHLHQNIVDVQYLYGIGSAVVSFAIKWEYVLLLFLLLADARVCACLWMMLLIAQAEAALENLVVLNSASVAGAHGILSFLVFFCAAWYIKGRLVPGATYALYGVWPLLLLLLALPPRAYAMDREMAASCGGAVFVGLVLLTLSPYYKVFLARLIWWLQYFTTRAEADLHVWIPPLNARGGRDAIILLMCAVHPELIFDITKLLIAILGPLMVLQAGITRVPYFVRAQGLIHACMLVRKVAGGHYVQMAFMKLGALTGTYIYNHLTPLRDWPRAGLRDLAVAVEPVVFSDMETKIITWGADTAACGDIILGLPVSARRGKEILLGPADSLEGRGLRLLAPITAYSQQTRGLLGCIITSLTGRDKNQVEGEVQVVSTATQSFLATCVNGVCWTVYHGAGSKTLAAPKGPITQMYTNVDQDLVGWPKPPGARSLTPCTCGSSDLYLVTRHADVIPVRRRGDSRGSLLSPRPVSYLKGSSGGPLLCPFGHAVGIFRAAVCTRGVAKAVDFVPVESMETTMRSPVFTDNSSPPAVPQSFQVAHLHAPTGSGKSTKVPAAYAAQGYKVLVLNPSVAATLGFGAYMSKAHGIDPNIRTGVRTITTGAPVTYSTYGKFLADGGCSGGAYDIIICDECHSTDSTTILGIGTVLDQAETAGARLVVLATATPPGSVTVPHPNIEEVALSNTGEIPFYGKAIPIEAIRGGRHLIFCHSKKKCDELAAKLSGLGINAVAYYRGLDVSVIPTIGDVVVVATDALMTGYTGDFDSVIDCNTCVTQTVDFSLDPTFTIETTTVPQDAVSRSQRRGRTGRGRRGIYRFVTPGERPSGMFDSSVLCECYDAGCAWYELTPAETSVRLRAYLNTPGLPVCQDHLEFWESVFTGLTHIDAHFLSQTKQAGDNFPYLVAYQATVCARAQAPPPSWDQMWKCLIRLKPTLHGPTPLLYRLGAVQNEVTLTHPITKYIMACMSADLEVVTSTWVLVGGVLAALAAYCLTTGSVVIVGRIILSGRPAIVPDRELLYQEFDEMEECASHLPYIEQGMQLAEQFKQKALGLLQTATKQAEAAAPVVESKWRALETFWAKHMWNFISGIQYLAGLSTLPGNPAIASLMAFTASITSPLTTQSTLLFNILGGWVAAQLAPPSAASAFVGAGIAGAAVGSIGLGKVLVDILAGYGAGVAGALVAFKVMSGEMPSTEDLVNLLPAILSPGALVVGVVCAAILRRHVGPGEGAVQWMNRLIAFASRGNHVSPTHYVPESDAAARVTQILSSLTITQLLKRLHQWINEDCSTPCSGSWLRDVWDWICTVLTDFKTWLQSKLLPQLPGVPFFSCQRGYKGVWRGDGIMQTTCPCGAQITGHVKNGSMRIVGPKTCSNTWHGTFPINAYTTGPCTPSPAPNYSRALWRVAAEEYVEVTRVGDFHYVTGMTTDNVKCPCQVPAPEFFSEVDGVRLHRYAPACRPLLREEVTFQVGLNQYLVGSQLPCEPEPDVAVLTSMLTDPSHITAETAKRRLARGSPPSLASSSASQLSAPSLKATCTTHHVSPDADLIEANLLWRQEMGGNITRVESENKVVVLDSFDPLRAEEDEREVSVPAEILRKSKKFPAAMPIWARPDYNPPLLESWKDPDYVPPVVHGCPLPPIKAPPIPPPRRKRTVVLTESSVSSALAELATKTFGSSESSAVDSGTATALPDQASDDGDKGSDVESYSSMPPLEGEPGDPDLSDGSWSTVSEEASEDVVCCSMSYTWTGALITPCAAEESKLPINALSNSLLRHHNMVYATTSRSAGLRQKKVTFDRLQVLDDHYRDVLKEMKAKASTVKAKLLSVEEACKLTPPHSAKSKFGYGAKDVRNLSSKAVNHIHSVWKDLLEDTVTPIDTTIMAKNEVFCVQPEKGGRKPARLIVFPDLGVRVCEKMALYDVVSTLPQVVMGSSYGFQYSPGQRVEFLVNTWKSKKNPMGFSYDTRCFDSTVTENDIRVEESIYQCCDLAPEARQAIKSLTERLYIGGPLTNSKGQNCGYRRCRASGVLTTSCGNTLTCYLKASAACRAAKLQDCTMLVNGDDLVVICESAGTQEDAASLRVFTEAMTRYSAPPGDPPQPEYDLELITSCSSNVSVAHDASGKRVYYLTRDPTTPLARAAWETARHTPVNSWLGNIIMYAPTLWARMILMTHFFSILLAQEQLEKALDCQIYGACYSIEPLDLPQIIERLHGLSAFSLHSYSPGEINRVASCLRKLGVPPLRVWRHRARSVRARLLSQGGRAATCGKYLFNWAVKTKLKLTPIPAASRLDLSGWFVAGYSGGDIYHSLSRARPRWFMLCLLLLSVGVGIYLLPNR

SMILES | IC50 [µM]
Cc1ccc(NC(=O)C(CCCCN)NC(=O)C(N)Cc2cccc3ccccc23)cc1 [Compound 60, (S,S)-6-AMINO-2-(2-AMINO-3-NAPHTHALEN-1-YL-PROPIONYLAMINO)-HEXANOIC ACID P-TOLYLAMIDE] | > 50
Cc1ccc(NC(=O)C(CCCCN)NC(=O)C(N)Cc2cccc3ccccc23)cc1 [Compound 61, (S,R)-6-AMINO-2-(2-AMINO-3-NAPHTHALEN-1-YL-PROPIONYLAMINO)-HEXANOIC ACID P-TOLYLAMIDE] | > 50
Cc1ccc(NC(=O)C(CCCCN)NC(=O)c2ccc(C)c3ccccc23)cc1 [Compound 62, (S)-4-METHYL-NAPHTHALENE-1-CARBOXYLIC ACID (5-AMINO-1-P-TOLYLCARBAMOYL-PENTYL)-AMIDE] | > 50
Cc1ccc(NC(=O)C(CCCCN)NC(=O)c2c(C)ccc3ccccc23)cc1 [Compound 63, (S)-2-METHYL-NAPHTHALENE-1-CARBOXYLIC ACID (5-AMINO-1-P-TOLYLCARBAMOYL-PENTYL)-AMIDE] | > 50
Cc1ccc(NC(=O)C(CCCCN)NC(=O)c2ccc(F)c3ccccc23)cc1 [Compound 64, (S)-4-FLUORO-NAPHTHALENE-1-CARBOXYLIC ACID (5-AMINO-1-P-TOLYLCARBAMOYL-PENTYL)-AMIDE] | > 50
COc1cc2ccccc2cc1C(=O)NC(CCCCN)C(=O)Nc1ccc(C)cc1 [Compound 65, (S)-3-METHOXY-NAPHTHALENE-2-CARBOXYLIC ACID (5-AMINO-1-P-TOLYLCARBAMOYL-PENTYL)-AMIDE] | > 50
COc1ccc2cc(C(=O)NC(CCCCN)C(=O)Nc3ccc(C)cc3)ccc2c1 [Compound 66, (S)-6-METHOXY-NAPHTHALENE-2-CARBOXYLIC ACID (5-AMINO-1-P-TOLYLCARBAMOYL-PENTYL)-AMIDE] | > 50
Cc1ccc(NC(=O)C(CCCCN)NC(=O)c2ccc3c4c(cccc24)CC3)cc1 [Compound 67, (S)-ACENAPHTHENE-5-CARBOXYLIC ACID (5-AMINO-1-P-TOLYLCARBAMOYL-PENTYL)-AMIDE] | > 50
Cc1ccc(NC(=O)[C@H](CCCCN)NS(=O)(=O)c2cccc3ccccc23)cc1 [Compound 68, (S)-6-AMINO-2-(NAPHTHALENE-1-SULFONYLAMINO)-HEXANOIC ACID P-TOLYLAMIDE] | > 50
Cc1ccc(NC(=O)[C@H](CCCCN)NS(=O)(=O)c2ccc3ccccc3c2)cc1 [Compound 69, (S)-6-AMINO-2-(NAPHTHALENE-2-SULFONYLAMINO)-HEXANOIC ACID P-TOLYLAMIDE] | > 50
Cc1ccc(NC(=O)C(CCCCN)NS(=O)(=O)c2ccc(-c3ccccc3)cc2)cc1 [Compound 70, (S)-6-AMINO-2-(BIPHENYL-4-SULFONYLAMINO)-HEXANOIC ACID P-TOLYLAMIDE] | > 50
Cc1ccc(NC(=O)C(CCCCN)NC(=O)Nc2cccc3ccccc23)cc1 [Compound 71, (S)-6-AMINO-2-(3-NAPHTHALEN-1-YL-UREIDO)-HEXANOIC ACID P-TOLYLAMIDE] | > 50
Cc1ccc(NC(=O)C(CCCCN)NC(=O)Nc2ccc3ccccc3c2)cc1 [Compound 72, (S)-6-AMINO-2-(3-NAPHTHALEN-2-YL-UREIDO)-HEXANOIC ACID P-TOLYLAMIDE] | 10 to 50
Cc1ccc(NC(=O)C(CCCCN)NC(=O)Nc2ccccc2-c2ccccc2)cc1 [Compound 73, (S)-6-AMINO-2-(3-BIPHENYL-2-YL-UREIDO)-HEXANOIC ACID P-TOLYLAMIDE] | > 50
Cc1ccc(NC(=O)C(CCCCN)NC(=O)Nc2ccc(Cc3ccccc3)cc2)cc1 [Compound 74, (S)-6-AMINO-2-[3-(4-BENZYL-PHENYL)-UREIDO]-HEXANOIC ACID P-TOLYLAMIDE] | 10 to 50
Cc1ccc(NC(=O)C(CCCCN)NC(=O)Nc2ccc(C(=O)c3ccccc3)cc2)cc1 [Compound 75, (S)-6-AMINO-2-[3-(4-BENZOYL-PHENYL)-UREIDO]-HEXANOIC ACID P-TOLYLAMIDE] | > 50
Cc1ccc(NC(=O)C(CCCCN)NC(=O)NCCc2ccc(-c3ccccc3)cc2)cc1 [Compound 76, (S)-6-AMINO-2-[3-(2-BIPHENYL-4-YL-ETHYL)-UREIDO]-HEXANOIC ACID P-TOLYLAMIDE] | 10 to 50
